For one compound, KD results are on record in article PMC9976898 (2022).

SMILES strings stand for the structures.

This assay deals with F7-40 (DNA, aptamer) CTTACGACCACCATGGGAATCGGGTGGCTTGGAGGTGCGT
In words: ITC. The note with it: 20 mM NaCl, 0.5 mM MgCl2; 10 mM Tris-HCl pH 7.4, 1% methanol, 23 °C.

For the compound `C=C[C@H]1CN2CC[C@H]1C[C@H]2[C@H](O)c1ccnc2ccc(OC)cc12`, the KD stood at 62.1 ± 4.9 µM. That is a double-digit micromolar value.
